Patent publication US11555212B2, “Process for the production of sulfated phenolic compounds using modified Escerichia coli” (CysBio ApS, priority 2016, dated 2023)

Experiments:
SULT1A1 human [1] = target: T1, SULT1A1 human (Homo sapiens, UniProt P50225, V223M); assay: pHCA and zosteric acid in culture media of E. coli expressing an aryl sulfotransferase in combination with a tyrosine ammonia lyase; format: cell-based; conditions: E. coli BL21(DE3)pLysS expressing SULT1A1 Homo sapiens and RmXAL, M9 glucose, 0.1 mM IPTG, no substrate added
T1 construct: expressed in transfected cells; host or cells: E. coli BL21(DE3)pLysS
Description: (§1) The concentration of p-courmaric acid (pHCA) and zosteric acid in the supernatant was quantified by high performance liquid chromatography (HPLC) and compared to chemical standards. HPLC was done on a Thermo setup using a HS-F5 column and mobile phases: 5 mM ammonium formate pH 4.0 (A) and acetonitrile (B) at 1.5 mL min-1, using a gradient elution starting at 5% B. From 0.5 min after injection to 7 min, the fraction of B increased linearly from 5% to 60%, and between 9.5 min and 9.6 the fraction of B decreased back to 5%, and remaining there until 12 min. pHCA and zosteric acid were quantified by measuring absorbance at 277 nm.
The enzyme RmXAL from Rhodotorula mucilaginosa/Rhodotorula rubra (SEQ ID NO: 46) has tyrosine ammonia lyase activity, thus catalyzing the non-oxidative deamination of the amino acid tyrosine, releasing p-coumaric acid (pHCA) and ammonia. The gene encoding RmXAL was codon optimized using standard algorithms for expression in E. coli available by GeneArt (Life Technologies) and amplified by PCR using the primers shown in Table 5 and inserted into the pCDFDuet-1 vector (Novagen/Life Technologies), which had been digested by the restriction enzymes NdeI and BgIII, using Gibson reaction (New England Biolabs). […]

RsTAL = target: T2, RsTAL (Cereibacter sphaeroides, UniProt Q3IWB0); assay: Titers of pHCA and zosteric acid, E. coli co-expressing tyrosine ammonia-lyase and SULT1A1 rat; format: cell-based, Rhodobacter sphaeroides; conditions: E. coli BL21(DE3) with SULT1A1 rat and RsTAL; M9, 0.2% glucose, 2 mM tyrosine, 1 mM IPTG; overnight 37° C.; supernatant
T2 construct: were optimized for E. coli and synthesized by GeneArt, amplified by PCR; expressed in transfected cells; host or cells: E. coli BL21(DE3), plasmid pCBJ215
Description: as §1
The genes encoding the tyrosine ammonia-lyases RcTAL (from Rhodobacter capsulatus; SEQ ID NO: 50), RsTAL (from Rhodobacter sphaeroides; SEQ ID NO: 43) and FjTAL (from Flavobacterium johnsoniae; SEQ ID NO: 40) were cloned into expression vectors as follows. […]
Strains harboring recombinant plasmids were pre-cultured in 2×YT liquid medium with 100 μg mL^−1 ampicillin and 50 μg mL^−1 spectinomycin and incubated at 37° C. and 250 rpm overnight. […] The supernatants were then collected by centrifugation twice and applied to HPLC analysis as described in example 1, and the titers of p-coumaric acid (pHCA) and zosteric acid (ZA) were quantified using chemical standards and are presented in the table below.

SULT1A1 human [2] = target: T1, SULT1A1 human; assay: pHCA and zosteric acid in culture media of E. coli expressing an aryl sulfotransferase in combination with cysDNC and cysQ; format: cell-based; conditions: Enzymes: SULT1A1 Homo sapiens, grown as in Example 1 (0.1 mM pHCA)
Description: The strains were grown in M9 minimal media containing glucose as a carbon source, and 0.1 mM IPTG for induction of gene expression as well as 0.1 mM p-coumaric acid (pHCA). After four days of growth, samples were withdrawn by filtration and analyzed by HPLC.
as §1
The addition of sulfated groups to targets is dependent on supply of the donor molecule 3′-Phosphoadenosine 5′-phosphosulfate (PAPS). We examined if we could increase the production of zosteric acid by overexpressing enzymes providing PAPS and an enzyme that removes the product 3′-Phosphoadenosine 5′-phosphate (PAP).
In E. coli, the genes cysD and cysN encode the two subunits of ATP sulfurylase (EC:2.7.7.4), cysC encodes APS kinase (EC:2.7.1.25), and cysQ encode a PAP phosphatase.
The plasmid pRSFDuet-1 (Life Technologies) was digested by the restriction endonucleases NdeI and BgIII. The gene cluster was inserted into the digested plasmid using the Gibson reaction (New England Biolabs). […] For the combined expression of cysDNC and cysQ in an artificial operon, cysDNCQ, the two parts were amplified by PCR from E. coli MG1655 chromosomal DNA using the primers shown in Table 3. Again the parts were inserted into the digested plasmid. […] The plasmid expressing SULT1A1 Homo sapiens (SEQ ID NO: 2) from example 1 was co-transformed into E. coli BL21(DE3)pLysS cells (Life Technologies) with either the plasmid expressing cysDNC or cysDNCQ.
Cells were grown as in Example 1 and the supernatants were analyzed for product formation as in example 1. The strain expressing SULT1A1 in combination with cysDNCQ was also grown without the addition of IPTIG for induction.

T1 sequence (P50225 whole entry V223M): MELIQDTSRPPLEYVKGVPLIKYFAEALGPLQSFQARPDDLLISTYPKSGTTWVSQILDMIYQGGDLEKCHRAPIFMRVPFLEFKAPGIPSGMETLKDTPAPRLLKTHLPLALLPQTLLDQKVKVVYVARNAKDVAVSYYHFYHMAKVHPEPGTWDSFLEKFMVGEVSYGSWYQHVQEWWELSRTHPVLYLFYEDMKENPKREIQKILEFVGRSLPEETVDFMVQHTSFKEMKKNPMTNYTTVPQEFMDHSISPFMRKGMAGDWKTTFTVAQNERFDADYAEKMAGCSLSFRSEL
T2 sequence (Q3IWB0 whole entry Q21E/A24S/I74V/S113A/S143M/R238G/D285G/G287S): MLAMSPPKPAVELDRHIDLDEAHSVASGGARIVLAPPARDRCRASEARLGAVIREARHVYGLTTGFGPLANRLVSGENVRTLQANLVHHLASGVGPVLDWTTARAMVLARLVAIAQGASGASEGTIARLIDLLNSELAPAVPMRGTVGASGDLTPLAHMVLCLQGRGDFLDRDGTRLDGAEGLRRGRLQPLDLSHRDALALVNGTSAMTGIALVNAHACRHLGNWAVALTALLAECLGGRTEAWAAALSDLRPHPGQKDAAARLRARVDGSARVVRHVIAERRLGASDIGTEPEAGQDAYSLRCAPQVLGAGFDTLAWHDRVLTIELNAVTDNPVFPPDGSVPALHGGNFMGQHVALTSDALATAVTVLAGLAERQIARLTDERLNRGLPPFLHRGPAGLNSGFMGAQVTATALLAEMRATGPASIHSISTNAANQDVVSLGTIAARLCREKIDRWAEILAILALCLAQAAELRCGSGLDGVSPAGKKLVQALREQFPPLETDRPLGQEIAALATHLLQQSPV

Structure (SMILES)	Zosteric acid formed (SULT1A1 human [1]) [mM]	Titer of zosteric acid (ZA) (RsTAL) [µM]	Zosteric acid formed (SULT1A1 human [2]; CysDNC, induction 0.1 mM IPTG) [mM]	Zosteric acid formed (SULT1A1 human [2]; CysDNCQ, induction 0.1 mM IPTG) [mM]	Zosteric acid formed (SULT1A1 human [2]; induction 0.1 mM IPTG) [mM]	pHCA (SULT1A1 human [1]) [mM]	Titer of p-coumaric acid (pHCA) (RsTAL) [μM]	pHCA remaining (SULT1A1 human [2]; CysDNC, induction 0.1 mM IPTG) [mM]	pHCA remaining (SULT1A1 human [2]; CysDNCQ, induction 0.1 mM IPTG) [mM]	pHCA remaining (SULT1A1 human [2]; CysDNCQ, induction None) [mM]	pHCA remaining (SULT1A1 human [2]; induction 0.1 mM IPTG) [mM]
O=C(O)/C=C/c1ccc(OS(=O)(=O)O)cc1 [Zosteric acid, zosteric acid]	0.01	<1	0.06	0.09	0.02	–	–	–	–	–	–
O=C(O)/C=C/c1ccc(O)cc1 [pHCA, p-coumaric acid]	–	–	–	–	–	0.02	78	0.06	0.04	0.10	0.08
